System: hypertensive subjects
Experiment: 24-hour ambulatory blood pressure monitoring (ABPM), incl. nighttime dip
Format: in vivo, human
Settings: Part 1; for LSM Δ with Placebo, 24-hr DBP (ABPM, ANCOVA) / LSM Δ with Placebo, 24-hr Mean MAP (ABPM, ANCOVA) / LSM Δ with Placebo, 24-hr SBP (ABPM, ANCOVA) / LSM Δ with Placebo, Daytime Mean DBP (ABPM, ANCOVA) / LSM Δ with Placebo, Daytime Mean SBP (ABPM, ANCOVA) / LSM Δ with Placebo, Mean Central DBP (ABPM, ANCOVA) / LSM Δ with Placebo, Mean Central Mean BP (ABPM, ANCOVA) / LSM Δ with Placebo, Mean Central SBP (ABPM, ANCOVA) / LSM Δ with Placebo, Nighttime Mean DBP (ABPM, ANCOVA) / LSM Δ with Placebo, Nighttime Mean SBP (ABPM, ANCOVA): End of Treatment, FAS post-hoc
Procedure: Ambulatory blood pressure monitoring was accomplished with an ambulatory blood pressure monitoring device that consists of a blood pressure cuff worn on a subject's arm attached to a small recording device that is typically attached to the subject's belt or waistband.
The ABPM device is worn for 24 hours. Throughout that period, the device records the subject's blood pressure at regular intervals, during the subject's routine daily activities and while they are sleeping. The ABPM thus provides a complete record of the subject's blood pressure over a 24-hour period.
24-hour ABPM was measured in the clinic at baseline and Study Week 7. If, for any reason, the ABPM procedure was deemed a failure at the end of Study Week 7, it may have been repeated at Study Week 8 and therefore no imputation was employed regardless of use of rescue medications. Additionally, ABPM was also collected at the end of Study Week 4 in Part 2. If a repeat test was performed, it supersedes the original test results for that visit.
Specific derived variables based on ABPM measurements include mean 24-hour, mean Daytime, and mean Nighttime of SBP, DBP, and heart rate.
Change from baseline to Week 7 in 24-hour mean SBP (and DBP) based on ABPM will be analyzed using an ANCOVA with a term for treatment group and a baseline mean 24-hour value as a covariate.
The nighttime dip is defined as
100%×(mean daytime SBP−mean nighttime SBP)/mean daytime SBP
It is expressed as a percentage and is summarized by treatment group and visit using descriptive statistics. In addition, the number and percentage of subjects with nighttime dip in each of the dipper categories (Bloomfield & Park, 2015) is presented by treatment group and visit. The categories are: • (a) <10% • (b) 10-20% inclusive • (c) >20%
Secondary endpoints of this study were: • (a) Change in 24-hour ambulatory blood pressure monitoring (ABPM) parameters (systolic and diastolic) from baseline to the end of Study Week 7. • (b) Change in office-measured SBP from baseline to the end of Study Weeks 1, 2, 3, 4, 5, 6, and 7. • (c) Change in office-measured diastolic blood pressure (DBP) from baseline to the end of Study Weeks 1, 2, 3, 4, 5, 6, 7, and 8. • (d) Proportion of subjects who achieve office-measured BP of ≤130/80 mm Hg by the end of Study Week 8.

Question: How did the “LSM Δ with Placebo, 24-hr DBP (ABPM, ANCOVA)” value (12.5 mg BID) turn out when `CC(=O)N[C@H]1CC[C@H](NC(=O)CN2CCN(c3nncc(-c4ccc(C)cc4)n3)CC2)CC1` [Compound A HBr] was run?
Answer: −4.24 mmHg

Question: And the “LSM Δ with Placebo, 24-hr Mean MAP (ABPM, ANCOVA)” value (12.5 mg BID)?
Answer: −4.58 mmHg

Question: What about the “LSM Δ with Placebo, 24-hr SBP (ABPM, ANCOVA)” value (12.5 mg BID) of the same compound?
Answer: −4.76 mmHg

Question: And the “LSM Δ with Placebo, Daytime Mean DBP (ABPM, ANCOVA)” value (12.5 mg BID)?
Answer: −4.19 mmHg

Question: What about the “LSM Δ with Placebo, Daytime Mean SBP (ABPM, ANCOVA)” value (12.5 mg BID) of the same compound?
Answer: −4.96 mmHg

Question: And the “LSM Δ with Placebo, Mean Central DBP (ABPM, ANCOVA)” value (12.5 mg BID)?
Answer: −4.85 mmHg

Question: And the “LSM Δ with Placebo, Mean Central Mean BP (ABPM, ANCOVA)” value (12.5 mg BID)?
Answer: −6.08 mmHg

Question: And the “LSM Δ with Placebo, Mean Central SBP (ABPM, ANCOVA)” value (12.5 mg BID)?
Answer: −7.19 mmHg

Question: And the “LSM Δ with Placebo, Nighttime Mean DBP (ABPM, ANCOVA)” value (12.5 mg BID)?
Answer: −3.92 mmHg

Question: What about the “LSM Δ with Placebo, Nighttime Mean SBP (ABPM, ANCOVA)” value (12.5 mg BID) of the same compound?
Answer: −3.9 mmHg

Question: And the “24-hr Mean DBP (ABPM), Mean (SD)” value (12.5 mg BID, EoT, FAS)?
Answer: 77.63 (11.03) mmHg

Question: And the “24-hr Mean MAP (ABPM), Mean (SD)” value (12.5 mg BID, EoT, FAS)?
Answer: 105.41 (12.62) mmHg

Question: And the “24-hr Mean SBP (ABPM), Mean (SD)” value (12.5 mg BID, EoT, FAS)?
Answer: 133.19 (14.86) mmHg

Question: What about the “Daytime Mean DBP (ABPM), Mean (SD)” value (12.5 mg BID, EoT, FAS) of the same compound?
Answer: 79.69 (10.81) mmHg

Question: What about the “Daytime Mean SBP (ABPM), Mean (SD)” value (12.5 mg BID, EoT, FAS) of the same compound?
Answer: 135.38 (14.97) mmHg

Question: And the “Nighttime Mean DBP (ABPM), Mean (SD)” value (12.5 mg BID, EoT, FAS)?
Answer: 72.44 (12.25) mmHg

Question: What about the “Nighttime Mean SBP (ABPM), Mean (SD)” value (12.5 mg BID, EoT, FAS) of the same compound?
Answer: 126.81 (16.69) mmHg

Question: And the “Subjects with nighttime dip 10-20% in 24-hour systolic ABPM” value (12.5 mg BID, EoT, FAS)?
Answer: 5 (31.3) n (%)

Question: What about the “Subjects with nighttime dip <10% in 24-hour systolic ABPM” value (12.5 mg BID, EoT, FAS) of the same compound?
Answer: 11 (68.8) n (%)

Question: And the “Subjects with nighttime dip >20% in 24-hour systolic ABPM” value (12.5 mg BID, EoT, FAS)?
Answer: 0 n (%)

Question: And the “24-hr Mean DBP (ABPM) CFB to EoT, Mean (SD)” value (12.5 mg BID, FAS)?
Answer: −5.38 (8.59) mmHg

Question: And the “24-hr Mean MAP (ABPM) CFB to EoT, Mean (SD)” value (12.5 mg BID, FAS)?
Answer: −5.53 (10.63) mmHg

Question: What about the “24-hr Mean SBP (ABPM) CFB to EoT, Mean (SD)” value (12.5 mg BID, FAS) of the same compound?
Answer: −5.69 (12.90) mmHg

Question: And the “Daytime Mean DBP (ABPM) CFB to EoT, Mean (SD)” value (12.5 mg BID, FAS)?
Answer: −4.25 (9.64) mmHg

Question: What about the “Daytime Mean SBP (ABPM) CFB to EoT, Mean (SD)” value (12.5 mg BID, FAS) of the same compound?
Answer: −4.06 (14.48) mmHg

Question: What about the “Nighttime Mean DBP (ABPM) CFB to EoT, Mean (SD)” value (12.5 mg BID, FAS) of the same compound?
Answer: −6.00 (10.17) mmHg

Question: What about the “Nighttime Mean SBP (ABPM) CFB to EoT, Mean (SD)” value (12.5 mg BID, FAS) of the same compound?
Answer: −7.50 (16.17) mmHg

Question: What about the “LSM Δ with Placebo, 24-hr DBP (ABPM, ANCOVA)” value (12.5 mg QD) of the same compound?
Answer: −1.44 mmHg

Question: And the “LSM Δ with Placebo, 24-hr Mean MAP (ABPM, ANCOVA)” value (12.5 mg QD)?
Answer: −1.62 mmHg

Question: And the “LSM Δ with Placebo, 24-hr SBP (ABPM, ANCOVA)” value (12.5 mg QD)?
Answer: −1.5 mmHg

Question: What about the “LSM Δ with Placebo, Daytime Mean DBP (ABPM, ANCOVA)” value (12.5 mg QD) of the same compound?
Answer: −2.47 mmHg

Question: What about the “LSM Δ with Placebo, Daytime Mean SBP (ABPM, ANCOVA)” value (12.5 mg QD) of the same compound?
Answer: −2.14 mmHg

Question: What about the “LSM Δ with Placebo, Mean Central DBP (ABPM, ANCOVA)” value (12.5 mg QD) of the same compound?
Answer: −1.29 mmHg

Question: And the “LSM Δ with Placebo, Mean Central Mean BP (ABPM, ANCOVA)” value (12.5 mg QD)?
Answer: 0.06 mmHg

Question: What about the “LSM Δ with Placebo, Mean Central SBP (ABPM, ANCOVA)” value (12.5 mg QD) of the same compound?
Answer: 1.92 mmHg

Question: What about the “LSM Δ with Placebo, Nighttime Mean DBP (ABPM, ANCOVA)” value (12.5 mg QD) of the same compound?
Answer: −1.53 mmHg

Question: And the “LSM Δ with Placebo, Nighttime Mean SBP (ABPM, ANCOVA)” value (12.5 mg QD)?
Answer: −0.21 mmHg

Question: What about the “24-hr Mean DBP (ABPM), Mean (SD)” value (12.5 mg QD, EoT, FAS) of the same compound?
Answer: 79.93 (7.33) mmHg

Question: And the “24-hr Mean MAP (ABPM), Mean (SD)” value (12.5 mg QD, EoT, FAS)?
Answer: 109.47 (10.81) mmHg

Question: And the “24-hr Mean SBP (ABPM), Mean (SD)” value (12.5 mg QD, EoT, FAS)?
Answer: 139.00 (16.31) mmHg

Question: And the “Daytime Mean DBP (ABPM), Mean (SD)” value (12.5 mg QD, EoT, FAS)?
Answer: 81.53 (6.79) mmHg

Reference: patent US20260053811A1, “METHODS OF TREATING HYPERTENSION IN OBESE SUBJECTS” (Mineralys Therapeutics, Inc., priority 2022, published 2026)
